Results taken from US20120129872A1, “FUSED HETEROARYL INHIBITORS OF PRO-MATRIX METALLOPROTEINASE ACTIVATION” (priority 2010, published 2012).

How the values were obtained:
SCW-induced arthritis = assay: Efficacy in rats with SCW-induced arthritis (ankle thickness, clinical scores); type: in vivo, rat; conditions: 5, 20, 50 mg/kg BID
From the text: A polyarthritis can be induced in female Lewis rats following i.p. administration of streptococcal cell wall (SCW) […] (PG-PS) (J Exp Med 1977; 146:1585-1602). The model has an acute phase (days 3-7) that is complement and neutrophil-dependent and that resolves. A chronic erosive phase begins at about day ten and is dependent on the development of specific T cell immunity to the PG-GS, which resists digestion and remains present in synovial macrophages for months. Like rheumatoid arthritis, SCW-induced arthritis is reduced by TNF inhibitors, and the dependence of SCW-induced arthritis on macrophages (Rheumatology; 2001; 40:978-987) and the strong association of rheumatoid arthritis severity with synovial-tissue macrophage counts (Ann Rheum Dis; 2005; 64:834-838) makes SCW-arthritis an attractive model for testing potential therapeutic agents. SCW PG-PS 10S (Beckton Dickinson Cat#210866) suspended in saline was vortexed for 30 seconds and sonicated for 3 min with a probe type sonicator prior to injection. […]
To induce arthritis, Female Lewis (LEW/N) rats, 5-6 weeks of age (80-100 g) were injected (i.p.) with SCW PG-PS as described above. […] Each ankle was measured 3 times and averaged, and treatment groups were randomized based on ankle thickness (Table 6). […]

[1] = target: T1, MMP9 mediated gelatinase activity (Rattus norvegicus, UniProt P50282); assay: In situ zymography of gelatinase activity in livers of SCW-induced rats; type: in vivo; conditions: for Intensity, Rat 1 / Intensity, Rat 2 / Intensity, Rat 3 / Intensity, Mean: liver
T1 construct: from tissue; host or cells: liver sections of female Lewis rats
From the text: In situ zymography provides an alternative approach to assess active MMP9 in tissues (Frederiks). Tissue sections are overlain with fluorescene-conjugated gelatin wherein the conjugation is sufficiently dense to cause the fluorescene to be dye-quenched (DQ). Proteolytic degradation of the DQ-gelatin releases the fluorescene from the quenching effect giving rise to bright green fluorescence at the site of degradation. Because in situ zymography requires the use of frozen sections, calcified tissues are problematic. However, an additional feature of the SCW arthritis model is the development of hepatic granulomatous disease (J Immunol; 1986; 137:2199-2209), and MMP9 reportedly plays a role in macrophage recruitment in the granulomas response to mycobacteria (Infect Immun; 2006; 74:6135-6144). Consequently, granulomatous livers from SCW-treated rats were assessed for active MMP9 by in situ zymography.
As described above, Female Lewis (LEW/N) rats, 5-6 weeks of age (80-100 g) were injected (i.p.) with saline or SCW PG-PS. On day 28, when the granulomatous response was well established, animals were sacrificed and livers were frozen in OCT cryo-sectioning medium and […] sections were cut on a Cryome HM 500 M cryotome and mounted on glass microscope slides. Sections were air dried briefly. MMP9 was confirmed as the source of the gelatinase activity in the liver by treating liver sections with monoclonal antibodies directed against the active site of the two major gelatinases MMP9 and MMP2. Liver sections overlain with 50 μL of 100 μg/mL neutralizing mouse monoclonal antibodies directed against MMP9 (Calbiochem, clone 6-6B), or MMP2 (Millipore, clone CA-4001), or with PBS for 1 hr at room temperature. Tissues were rinsed once with PBS, blotted, and briefly air dried and then overlain with DQ-gelatin (Invitrogen) dissolved to 1 mg/mL in deionized water and then diluted 1:10 in 1% wt/vol low gelling point agarose type VII (Sigma) in PBS. The sections were covered with coverslips, incubated in the dark at room temperature for 20 min, and imaged on an Olympus IX80 inverted microscope fitted with fluorescence optics, using SlideBook™ imaging software (Intelligent Imaging Innovations, Inc., Philadelphia, Pa.; version 5.0). Fluorescence intensity was determined (Table 8). When compared to a saline-treated rat, gelatinase activity was abundantly expressed in granulomatous liver sections obtained from a rat with SCW arthritis.
Next, liver in situ zymography was used to assess the relative presence of active MMP9 in rats dosed with vehicle vs. Compound-α. Female Lewis (LEW/N) rats, 5-6 weeks of age (80-100 g) were injected (i.p.) with saline or SCW PG-PS. Commencing on day 25, randomized groups of rats (n=3 rats/group) received vehicle or 20 or 50 mg/kg Compound-α BID by oral gavage. Vehicle consisted of an aqueous mixture containing 2% (v:v) N-methylpyrrolidone, 5% (v:v) glycerine, and 20% (w:v) captisol. Treatment continued daily through the morning of day 28. Four hrs after the AM dose on day 28, rats were sacrificed and livers assessed for active MMP9 by in situ zymography (Table 9). Gelatinase activity was increased markedly in SCW-induced rats, but activity was reduced by approximately 80% in animals treated with 50 mg/kg Compound-α.

T1 sequence (P50282 108-708): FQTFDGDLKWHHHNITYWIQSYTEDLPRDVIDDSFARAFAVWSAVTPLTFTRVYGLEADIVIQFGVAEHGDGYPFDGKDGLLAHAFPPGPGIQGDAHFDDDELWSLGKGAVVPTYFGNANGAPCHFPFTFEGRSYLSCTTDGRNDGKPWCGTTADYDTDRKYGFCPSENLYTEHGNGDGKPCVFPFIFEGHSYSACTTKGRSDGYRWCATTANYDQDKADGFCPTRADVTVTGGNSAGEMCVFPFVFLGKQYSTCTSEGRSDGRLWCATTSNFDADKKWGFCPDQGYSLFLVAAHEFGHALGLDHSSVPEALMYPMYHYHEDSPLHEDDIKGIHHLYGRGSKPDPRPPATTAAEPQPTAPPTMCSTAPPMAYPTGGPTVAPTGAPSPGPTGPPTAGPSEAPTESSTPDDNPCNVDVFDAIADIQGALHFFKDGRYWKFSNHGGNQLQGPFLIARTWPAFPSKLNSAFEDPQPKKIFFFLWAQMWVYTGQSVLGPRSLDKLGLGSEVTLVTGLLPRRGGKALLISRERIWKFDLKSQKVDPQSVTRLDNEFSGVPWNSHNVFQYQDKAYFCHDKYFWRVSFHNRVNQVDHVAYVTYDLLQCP

Reduction of liver gelatinase activity ([1]; 50 mg/kg BID Day 25-28): approximately 80%
Intensity, Rat 1 ([1]; 20 mg/kg BID Day 25-28): 43.0 RLU × 10^6
Intensity, Rat 2 ([1]; 20 mg/kg BID Day 25-28): 69.0 RLU × 10^6
Intensity, Rat 3 ([1]; 20 mg/kg BID Day 25-28): 53.7 RLU × 10^6
Intensity, Mean ([1]; 20 mg/kg BID Day 25-28, n=3): 55.2 RLU × 10^6
Intensity, Rat 1 ([1]; 50 mg/kg BID Day 25-28): 3.2 RLU × 10^6
Intensity, Rat 2 ([1]; 50 mg/kg BID Day 25-28): 25.6 RLU × 10^6
Intensity, Rat 3 ([1]; 50 mg/kg BID Day 25-28): 4.5 RLU × 10^6
Intensity, Mean ([1]; 50 mg/kg BID Day 25-28, n=3): 11.1 RLU × 10^6
SMILES: Cc1nc(C)c(-c2csc(Nc3cc(S(N)(=O)=O)ccc3OC(C)C)n2)s1 [Compound-α, 3-(2′,4′-Dimethyl-[4,5′]bithiazolyl-2-ylamino)-4-isopropoxy-benzenesulfonamide•HBr]
Effect on ankle thickness measurements (SCW-induced arthritis; Day 18-26): dose-dependent decrease in ankle thickness measurements
Effect on clinical score measurements (SCW-induced arthritis; significant effects emerging at 20 mg/kg): dose dependent decrease in clinical score measurements
